# Assay results taken from paper PMC2825274 (PLoS ONE, 2010).
# “And” between values parts separate entries of the source, which are not always exact repeats. Equal values may be shown once.
# Key:
# Format in all cases: cell-based, influenza A virus
# [1] = test system: influenza A/California/10/09 (H1N1) (CA10), S31N amantadine-resistant
# [2] = test system: A/New Caledonia/20/99 (H1N1) V27A (NC V27A)
# [3] = test system: A/Wisconsin/67/05 (H3N2) S31N (WI S31N)
# [4] = test system: A/Mississippi/3/01 (H1N1) H274Y (MS H274Y) oseltamivir-resistant
# [5] = test system: A/Hawaii/21/07 (H1N1) H274Y (HI H274Y)
compound,measurement,setting,value
NC12CC3CC(CC(C3)C1)C2 [Amantadine],Fold Reduction in EC50 Compared to (A),[1],1.8 and 2.0 and 3.2
same,Fold Reduction in EC50 Compared to (B),[1],1.7
same,Fold Reduction in EC50 Compared to (C),[1],1.6
same,amantadine concentration with significant contribution to the synergy of the TCAD regimen,[1],≥ 0.32 µg/mL
same,contribution to the total synergy of the TCAD regimen,[1],44%
same,activity as a single agent,[2],no activity
same,amantadine concentration at which the increase in synergy of the TCAD regimen was observed,[2],0.32 µg/mL
same,activity as a single agent,[3],no activity
same,amantadine concentration at which the increase in synergy of the TCAD regimen was observed,[3],1 µg/mL
same,EC50,[4],0.060 µg/mL
NC(=O)c1ncn([C@@H]2O[C@H](CO)[C@@H](O)[C@H]2O)n1 [Ribavirin],Fold Reduction in EC50 Compared to (B),[1],1.5
same,Fold Reduction in EC50 Compared to (C),[1],2.2
same,EC50,[4],3.6 µg/mL
Oseltamivir carboxylate,Fold Reduction in EC50 Compared to (B),[1],6.5
same,Fold Reduction in EC50 Compared to (C),[1],6.5
same,EC50,[4],73 µg/mL
same,Fold Reduction in EC50 Compared to (A),[4],21
same,Fold Reduction in EC50 Compared to (B),[4],>29
same,Fold Reduction in EC50 Compared to (C),[4],>29
same,antiviral activity as a single agent,[4],no antiviral activity
same,contribution to the total synergy of the TCAD regimen,[4],76%
same,fold reduction in susceptibility,[4],1480 fold
same,oseltamivir carboxylate concentration from which it contributed to the synergy of the TCAD regimen,[4],≥ 0.1 µg/mL
same,Fold Reduction in EC50 Compared to (B),[5],3.3
same,Fold Reduction in EC50 Compared to (C),[5],4.2
same,antiviral activity as a single agent,[5],no antiviral activity
same,contribution to the total synergy of the TCAD regimen,[5],83%
same,fold reduction in susceptibility,[5],300 fold
same,oseltamivir carboxylate concentration from which it contributed to the synergy of the TCAD regimen,[5],≥ 0.32 µg/mL
